From patent publication US6107316A, “Method for treating protozoal infections” (priority 1998, dated 2000)

Columns and labels:
Toxoplasma gondii [1] = experiment: growth inhibition of T. gondii in L929 host cells ([3H]-uracil incorporation); format: cell-based; conditions: Toxoplasma gondii, L929 host cells; for inhibition at 0.05 µg/mL: 0.05 μg/ml; for inhibition at 0.5 µg/mL: 0.5 μg/ml; for inhibition at 0.5 µg/mL / inhibition at 5 µg/mL / inhibition at 25 µg/mL: read-out: % Inhibition; for inhibition at 5 µg/mL: 5.0 μg/ml; for inhibition at 25 µg/mL: 25.0 μg/ml
Method: (§1) Compounds were tested for it vitro growth inhibitory activity against Toxoplasma gondii replication in L929 (L929-ATCC CCL 1, mouse connective tissue) or HFF (human foreskin fibroblast) host cells using the [^3 H]-uracil incorporation technique as follows. Host cells were grown in 96-well flat-bottom microtiter plates at 37° C in a 5% carbon dioxide environment in modified Eagle's medium containing penicillin, streptomycin and 10% fetal equine serum. Wells containing a homogeneous confluent monolayer of host cells were infected with T. gondii tachyzoites at a ratio of 3 parasites per cell (approximately 6×10^4 tachyzoites per well containing 100 μl of medium). […] Two hours post infection, the cultures were washed to remove free parasites and the various dilutions of test compound were added. Cells were subsequently collected at 24, 48 and 72 hours. Four hours prior to each harvesting 50 Al of [^3 H]-uracil (1 μCi) was added. Cells were collected using a cell harvester and incorporated radioactivity was measured using a scintillation counter. […]

Toxoplasma gondii [2] = experiment: growth inhibition of T. gondii in HFF host cells ([3H]-uracil incorporation); format: cell-based; conditions: Toxoplasma gondii; for inhibition at 0.5 µg/mL: 0.5 μg/ml; for inhibition at 0.05 µg/mL: 0.05 μg/ml; for inhibition at 25 µg/mL: 25.0 μg/ml
Method: as §1

[3] = cytotoxicity towards L929 host cells (Cell Titer 96); conditions: mouse, % Inhibition of host cell growth (values in parenthesis)
Method: (§2) Cytotoxicity of the test compounds towards host cells was determined using the Cell Titer 96™ it (Promega Corporation, Madison, Wis.) as follows. Cells were seeded at a concentration of 5×10^3 cells per well containing 100 μl of medium in 96-well flat-bottom microtiter plates and incubated at 37° C. in a 5% carbon dioxide environment for 4 hours. Dilutions of the test compounds prepared as described above were then added, and incubation continued for 24, 48 or 72 hours. Four hours before each of these time points the growth medium containing test compound was replaced with 100 μl of fresh medium followed by addition of 16 μl of the kit dye solution. After incubation at 37° C. for another 4 hours, 100 μl of the kit solubilization/stop solution was added to each well, the contents of the wells were mixed and the plates kept 1 hour at room temperature. The plates were then read spectrophotometrically in a plate reader at a wavelength of 570 nm. […] Atovaquone was included in the test as a standard.

[4] = cytotoxicity towards HFF host cells (Cell Titer 96); conditions: human, % Inhibition of host cell growth (values in parenthesis)
Method: as §2

[5] = toxicity towards MDBKF5D2 host cells (MTS); conditions: bovine, mdbkf5d2 cells, Cytotoxicity (percent toxicity)
Method: (§3) Compounds were tested for in vitro growth inhibitory activity against C. parvum grown in host MDBKF5D2 cells and for toxicity towards the host cells as follows. […] To test for toxicity towards the host cells, the media containing test compound (200 μl) were introduced into two wells of a 96 well microtiter plate containing confluent MDBKF5D2 cell monolayers and two wells without monolayers, and incubated at 37° C. in an 8% carbon dioxide environment. After 48 hours, the tetrazolium salt MTS (Owen's solution) and phenazine methosulfate were added to each well at concentrations of 333 μg/ml and 25 μM, respectively. The plate was returned to the incubator in the dark to develop for 2 hours, then 100 μl of each supernatant was transferred to a new microtiter plate and read spectrophotometrically in a plate reader at a wavelength of 490 nm. Percent toxicity was calculated by subtracting the mean optical density (OD) of the drug supernatants from the OD of medium control supernatants (no drug), dividing by the OD of the medium control, and multiplying by 100. To test for growth inhibitory activity against C. parvum, 3×10^4 oocysts per well were incubated in mentioned concentrations of each drug at 37° C. (8% CO2) on confluent MDBKF5D2 cell monolayers in 96 well microtiter plates. After 48 hours, the level of infection in each well was determined by means of an immunofluorescence assay. Percent inhibition of growth was calculated by subtracting the mean parasite count in the wells containing test compound from the mean parasite count in the medium control wells (no test compound), dividing by the mean parasite count in the medium control wells, and multiplying by 100. Paromomycin was included in the test as a standard.

Cryptosporidium parvum = experiment: growth inhibitory activity against C. parvum in host MDBKF5D2 cells (immunofluorescence); format: cell-based; conditions: Cryptosporidium parvum, 48 h
Method: as §3

[6] = 24 h, HFF host cells, 24 hours, read-out: % Inhibition
[7] = 24 h, HFF host cells, 5.0 μg/ml, 24 hours, read-out: % Inhibition
[8] = 48 h, HFF host cells, 48 hours, read-out: % Inhibition
[9] = 48 h, HFF host cells, 5.0 μg/ml, 48 hours, read-out: % Inhibition
[10] = 72 h, HFF host cells, 72 hours, read-out: % Inhibition
[11] = 72 h, HFF host cells, 5.0 μg/ml, 72 hours, read-out: % Inhibition

`O=C1C(O)=C([C@H]2CC[C@H](c3ccc(Cl)cc3)CC2)C(=O)c2ccccc21` [Atovaquone, reference compound] gave an inhibition at 0.05 µg/mL (Toxoplasma gondii [1]; L929, 24 h, 24 hours) of 80.9%, an inhibition at 0.5 µg/mL (Toxoplasma gondii [1]; L929, 24 h, 24 hours) of 85.2% and an inhibition at 5 µg/mL (Toxoplasma gondii [1]; L929, 24 h, 24 hours) of 80.3%. It also gave an inhibition at 0.05 µg/mL (Toxoplasma gondii [1]; L929, 48 h, 48 hours) of 0%, an inhibition at 0.5 µg/mL (Toxoplasma gondii [1]; L929, 48 h, 48 hours) of 99% and an inhibition at 5 µg/mL (Toxoplasma gondii [1]; L929, 48 h, 48 hours) of 100%. The inhibition at 0.05 µg/mL (Toxoplasma gondii [1]; L929, 72 h, 72 hours) was 0%, the inhibition at 0.5 µg/mL (Toxoplasma gondii [1]; L929, 72 h, 72 hours) was 98.4% and the inhibition at 5 µg/mL (Toxoplasma gondii [1]; L929, 72 h, 72 hours) was 97.8%. It also gave an inhibition at 0.5 µg/mL (Toxoplasma gondii [2]; [6]) of 98.3%, an inhibition at 5 µg/mL (Toxoplasma gondii [2]; [7]) of 95.5% and an inhibition at 0.05 µg/mL (Toxoplasma gondii [2]; 48 h, HFF host cells) of 50.5%. For the same compound, the inhibition at 0.5 µg/mL (Toxoplasma gondii [2]; [8]) was 77.8%, the inhibition at 5 µg/mL (Toxoplasma gondii [2]; [9]) was 99.8% and the inhibition at 0.05 µg/mL (Toxoplasma gondii [2]; 72 h, HFF host cells) was 89.4%. It also gave an inhibition at 0.5 µg/mL (Toxoplasma gondii [2]; [10]) of 99.8%, an inhibition at 5 µg/mL (Toxoplasma gondii [2]; [11]) of 100% and an inhibition at 24 h ([3]; L929, 0.05 μg/ml) of 0%. The inhibition at 48 h ([3]; L929, 0.05 μg/ml) was 0%, the inhibition at 72 h ([3]; L929, 0.05 μg/ml) was 0.2% and the inhibition at 24 h ([3]; L929, 0.5 μg/ml) was 14.3%. The inhibition at 48 h ([3]; L929, 0.5 μg/ml) was 15%, the inhibition at 72 h ([3]; L929, 0.5 μg/ml) was 44.4% and the inhibition at 24 h ([3]; L929, 5.0 μg/ml) was 20%. It also gave an inhibition at 48 h ([3]; L929, 5.0 μg/ml) of 54.1%, an inhibition at 72 h ([3]; L929, 5.0 μg/ml) of 78.1% and an inhibition at 24 h ([4]; 0.05 μg/ml) of 0%. The inhibition at 48 h ([4]; 0.05 μg/ml) was 0%, the inhibition at 72 h ([4]; 0.05 μg/ml) was 0% and the inhibition at 24 h ([4]; 0.5 μg/ml) was 0%. The inhibition at 48 h ([4]; 0.5 μg/ml) was 9.6%, the inhibition at 72 h ([4]; 0.5 μg/ml) was 1.4% and the inhibition at 24 h ([4]; 5.0 μg/ml) was 6.2%. For the same compound, the inhibition at 48 h ([4]; 5.0 μg/ml) was 31.1% and the inhibition at 72 h ([4]; 5.0 μg/ml) was 28.1%.

With `CCC(C)(NC(=O)c1cc(F)c(F)c(F)c1)C(=O)CCl` (stereo not shown) [Compound 11] the inhibition at 5 µg/mL (Toxoplasma gondii [1]; L929, 24 h, 24 hours) was 21.5%, the inhibition at 25 µg/mL (Toxoplasma gondii [1]; L929, 24 h, 24 hours) was 25.6% and the inhibition at 5 µg/mL (Toxoplasma gondii [1]; L929, 48 h, 48 hours) was 80.1%. The inhibition at 25 µg/mL (Toxoplasma gondii [1]; L929, 48 h, 48 hours) was 66.1%, the inhibition at 5 µg/mL (Toxoplasma gondii [1]; L929, 72 h, 72 hours) was 95.4% and the inhibition at 25 µg/mL (Toxoplasma gondii [1]; L929, 72 h, 72 hours) was 73.6%. For the same compound, the cytotoxicity at 48 h, 0.1 µM [5] was 0%, the cytotoxicity at 48 h, 1 µM [5] was 0% and the cytotoxicity at 48 h, 10 µM [5] was 0%. The cytotoxicity at 48 h, 100 µM [5] was 2.7%, the inhibition at 5 µg/mL (Toxoplasma gondii [2]; [7]) was 73.4% and the inhibition at 25 µg/mL (Toxoplasma gondii [2]; [6]) was 91.9%. It also gave an inhibition at 5 µg/mL (Toxoplasma gondii [2]; [9]) of 98.4%, an inhibition at 25 µg/mL (Toxoplasma gondii [2]; [8]) of 98.8% and an inhibition at 5 µg/mL (Toxoplasma gondii [2]; [11]) of 97.7%. It also gave an inhibition at 25 µg/mL (Toxoplasma gondii [2]; [10]) of 97.7%, an inhibition at 24 h ([3]; L929, 5.0 μg/ml) of 0% and an inhibition at 48 h ([3]; L929, 5.0 μg/ml) of 5.5%. The inhibition at 72 h ([3]; L929, 5.0 μg/ml) was 36.9%, the inhibition at 24 h ([3]; L929, 25.0 μg/ml) was 22.6% and the inhibition at 48 h ([3]; L929, 25.0 μg/ml) was 60.1%. It also gave an inhibition at 72 h ([3]; L929, 25.0 μg/ml) of 89.6%, an inhibition at 0.1 µM (Cryptosporidium parvum) of 5.6% and an inhibition at 1 µM (Cryptosporidium parvum) of 18.1%. For the same compound, the inhibition at 10 µM (Cryptosporidium parvum) was 23.9%, the inhibition at 100 µM (Cryptosporidium parvum) was 86.2% and the inhibition at 24 h ([4]; 5.0 μg/ml) was 2.1%. For the same compound, the inhibition at 48 h ([4]; 5.0 μg/ml) was 6.1%, the inhibition at 72 h ([4]; 5.0 μg/ml) was 0% and the inhibition at 24 h ([4]; 25.0 μg/ml) was 17.5%. The inhibition at 48 h ([4]; 25.0 μg/ml) was 20% and the inhibition at 72 h ([4]; 25.0 μg/ml) was 50.1%.

In the case of `CCC(C)(NC(=O)c1cc(F)cc(F)c1)C(=O)CCl` (stereo not shown) [Compound 12], the inhibition at 0.5 µg/mL (Toxoplasma gondii [1]; L929, 24 h, 24 hours) is reported as 42%, the inhibition at 5 µg/mL (Toxoplasma gondii [1]; L929, 24 h, 24 hours) is reported as 2.8% and the inhibition at 0.5 µg/mL (Toxoplasma gondii [1]; L929, 48 h, 48 hours) is reported as 77.6%. The inhibition at 5 µg/mL (Toxoplasma gondii [1]; L929, 48 h, 48 hours) was 55%, the inhibition at 0.5 µg/mL (Toxoplasma gondii [1]; L929, 72 h, 72 hours) was 59% and the inhibition at 5 µg/mL (Toxoplasma gondii [1]; L929, 72 h, 72 hours) was 86.2%. The cytotoxicity at 48 h, 0.1 µM [5] was 11.2%, the cytotoxicity at 48 h, 1 µM [5] was 2.5% and the cytotoxicity at 48 h, 10 µM [5] was 9.9%. It also gave a cytotoxicity at 48 h, 100 µM [5] of 9.9%, an inhibition at 0.5 µg/mL (Toxoplasma gondii [2]; [6]) of 53.4% and an inhibition at 5 µg/mL (Toxoplasma gondii [2]; [7]) of 84.4%. The inhibition at 5 µg/mL (Toxoplasma gondii [2]; 48 h) was 97.3%, the inhibition at 0.5 µg/mL (Toxoplasma gondii [2]; [8]) was 95.3% and the inhibition at 0.5 µg/mL (Toxoplasma gondii [2]; [10]) was 91.6%. It also gave an inhibition at 5 µg/mL (Toxoplasma gondii [2]; [11]) of 99.8%, an inhibition at 24 h ([3]; L929, 0.5 μg/ml) of 8% and an inhibition at 48 h ([3]; L929, 0.5 μg/ml) of 0%. The inhibition at 72 h ([3]; L929, 0.5 μg/ml) was 0%, the inhibition at 24 h ([3]; L929, 5.0 μg/ml) was 18.9% and the inhibition at 48 h ([3]; L929, 5.0 μg/ml) was 66.8%. The inhibition at 72 h ([3]; L929, 5.0 μg/ml) was 88%, the inhibition at 0.1 µM (Cryptosporidium parvum) was 9.4% and the inhibition at 1 µM (Cryptosporidium parvum) was 7.2%. It also gave an inhibition at 10 µM (Cryptosporidium parvum) of 21.3%, an inhibition at 100 µM (Cryptosporidium parvum) of 88.9% and an inhibition at 24 h ([4]; 0.5 μg/ml) of 4.6%. For the same compound, the inhibition at 48 h ([4]; 0.5 μg/ml) was 5.4%, the inhibition at 72 h ([4]; 0.5 μg/ml) was 0% and the inhibition at 24 h ([4]; 5.0 μg/ml) was 7.7%. It also gave an inhibition at 48 h ([4]; 5.0 μg/ml) of 29.1% and an inhibition at 72 h ([4]; 5.0 μg/ml) of 41.3%.

`NC[C@@H]1O[C@H](O[C@H]2[C@@H](O)[C@H](O[C@@H]3[C@@H](O)[C@H](N)C[C@H](N)[C@H]3O[C@H]3O[C@H](CO)[C@@H](O)[C@H](O)[C@H]3N)O[C@@H]2CO)[C@H](N)[C@@H](O)[C@@H]1O` [Paromomycin, reference compound] gave an inhibition at 2000 µg/mL (Cryptosporidium parvum) of 77.8%.
